The record followed here is PubChem BioAssay (NCI).

Among the test systems are SF-295 CNS; SW-620 colon; CCRF-CEM leukemia; SK-MEL-28 melanoma; COLO 205 colon; K-562 leukemia; NCI/ADR-RES ovarian; MDA-MB-435; MCF7 breast; HS 578T breast.
Experiment in all cases: DTP human tumour cell line panel, 48 h

SMILES strings stand for the structures.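 1) Cells in 96-well plates. 2) Compound, 48 h, 5 concentrations. 3) Linear interpolation between surrounding doses. 4) Unreached endpoint = highest concentration. The concentration for 50% growth inhibition is given as GI50. TGI: concentration producing complete growth inhibition.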

Turning to `CCCCCCCC(=O)OCC1OC(n2cc(F)c(=O)[nH]c2=O)C(NC(=O)OCc2ccccc2)C(O)C1O` (configuration not stated), the TGI in the experiment on SF-295 CNS, in the experiment with SW-620 colon, with CCRF-CEM leukemia, with SK-MEL-28 melanoma, in the experiment on COLO 205 colon and with K-562 leukemia was above 100 µM throughout.
Turning to `O=c1cc(-c2ccccc2)nc(/C=C(\O)c2ccncc2)n1-c1ccccc1`, the TGI in the experiment with SF-295 CNS, in the experiment on SW-620 colon, in the experiment with CCRF-CEM leukemia, with SK-MEL-28 melanoma, in the experiment with COLO 205 colon and in the experiment on K-562 leukemia was above 100 µM each time.
In the case of `CCCCCCCCC(O)C#CC(N)=O` (configuration not stated), the TGI (commonly the concentration giving total growth inhibition) in the experiment with SF-295 CNS was above 100 µM; in the experiment on SW-620 colon it was 37.2 µM; in the experiment with CCRF-CEM leukemia, 72.5 µM; with SK-MEL-28 melanoma it was 31.8 µM; in the experiment with K-562 leukemia, 75.4 µM.
As for `COc1ccc(OC)c(NCC#N)c1`, the concentration for total growth inhibition (TGI) in the experiment with SF-295 CNS, with SW-620 colon, with CCRF-CEM leukemia, in the experiment with SK-MEL-28 melanoma, in the experiment with COLO 205 colon and in the experiment with K-562 leukemia was above 100 µM throughout.
Turning to `O=c1nc(NC(c2ccccc2)(c2ccccc2)c2ccccc2)ccn1CCO`, the TGI with SF-295 CNS, in the experiment with SW-620 colon, in the experiment on SK-MEL-28 melanoma, in the experiment with COLO 205 colon and with K-562 leukemia was above 100 µM throughout.
For the molecule `C[C@]1(C(=O)O)N[C@H](C(=O)O)CS1`, the GI50 (as a rule, the concentration that inhibits growth by half) in the experiment on SF-295 CNS was 933 µM; in the experiment on NCI/ADR-RES ovarian, above 1000 µM; in the experiment on SW-620 colon, above 1000 µM; in the experiment with CCRF-CEM leukemia it was above 1000 µM; with MDA-MB-435, above 1000 µM; with SK-MEL-28 melanoma, above 1000 µM. Further, the figures for the GI50 in the experiment on COLO 205 colon, in the experiment with K-562 leukemia and with MCF7 breast were above 1000 µM, 2.34 µM and above 1000 µM, respectively. For the same molecule, the TGI in the experiment on SF-295 CNS, in the experiment on NCI/ADR-RES ovarian, with SW-620 colon, in the experiment with CCRF-CEM leukemia, in the experiment on MDA-MB-435 and in the experiment on SK-MEL-28 melanoma was above 1000 µM in each case. Moreover, the TGI in the experiment on COLO 205 colon, in the experiment with K-562 leukemia and in the experiment on MCF7 breast was above 1000 µM in each case.
As to `COc1cc(C=O)c(-c2cc3c(cc2C2(C)OCCS2)OCO3)c(OC)c1OC` (configuration not stated), the TGI is 48 µM in the experiment with SF-295 CNS; 39.6 µM in the experiment on SW-620 colon; above 160 µM in the experiment with CCRF-CEM leukemia; 26 µM with SK-MEL-28 melanoma; 16.1 µM with COLO 205 colon; above 239 µM in the experiment on K-562 leukemia.
On to `Cc1ccc(-c2cc(=O)c3cc(C)c(C)c(C(=O)O)c3o2)cc1`, for which the TGI in the experiment with SF-295 CNS, in the experiment on SW-620 colon, in the experiment on CCRF-CEM leukemia, in the experiment on SK-MEL-28 melanoma and in the experiment with COLO 205 colon was above 100 µM each time.
Regarding `Cc1ccc(C(=O)N2CCN(C(=O)c3ccc(C)cc3)c3ccccc32)cc1`, the TGI in the experiment on SF-295 CNS is above 43.1 µM; in the experiment on SW-620 colon it was above 100 µM; in the experiment with HS 578T breast, 29.8 µM; in the experiment on CCRF-CEM leukemia, above 100 µM; in the experiment with SK-MEL-28 melanoma, above 100 µM; with COLO 205 colon, 32.2 µM. The TGI in the experiment with K-562 leukemia and in the experiment with MCF7 breast was above 100 µM each time.
As to `COc1ccc(SC2c3ccc(C)cc3Oc3nc(N)c(C#N)c(N)c32)cc1` (configuration not stated), the GI50 in the experiment on SF-295 CNS was 1.55 µM; in the experiment with SW-620 colon it was 1.95 µM; in the experiment on HS 578T breast, 2.27 µM; in the experiment with CCRF-CEM leukemia it was 2.85 µM; with MDA-MB-435, 1.69 µM; in the experiment with SK-MEL-28 melanoma, 1.75 µM. Further, the GI50 is 2.66 µM in the experiment with K-562 leukemia and 1.95 µM in the experiment on MCF7 breast. Also, the TGI stood at 2.89 µM in the experiment on SF-295 CNS; 4.08 µM in the experiment with SW-620 colon; 5.54 µM in the experiment with HS 578T breast; 7.67 µM with CCRF-CEM leukemia; 3.16 µM in the experiment on MDA-MB-435; 3.2 µM in the experiment with SK-MEL-28 melanoma. Further, the TGI in the experiment with K-562 leukemia turned out to be 8.44 µM; in the experiment with MCF7 breast, 4.72 µM.
Turning to `CSc1nc(SC)c2c(C(N)=S)[nH]nc2n1`, the TGI was 48.1 µM in the experiment with SF-295 CNS; above 100 µM in the experiment with SW-620 colon; 69.5 µM in the experiment with CCRF-CEM leukemia; 99.5 µM in the experiment with SK-MEL-28 melanoma; 35.7 µM with COLO 205 colon; 78.9 µM in the experiment with K-562 leukemia.
Take `Cc1ccc(C(=O)N2c3ccccc3N(C)n3cccc3C2CC(=O)O)cc1` (configuration not stated): the TGI in the experiment on SF-295 CNS, in the experiment with SW-620 colon, with CCRF-CEM leukemia, in the experiment on SK-MEL-28 melanoma, in the experiment on COLO 205 colon and in the experiment with K-562 leukemia was above 100 µM in each case.
For `O=C1C2CC=CCC2C(=O)C12CCc1ccccc12` (configuration not stated), the TGI with SF-295 CNS, in the experiment on SW-620 colon, in the experiment on CCRF-CEM leukemia, in the experiment with SK-MEL-28 melanoma, in the experiment on COLO 205 colon and in the experiment on K-562 leukemia was above 100 µM each time.
Take `COC(=O)c1ccc(NC(=O)c2cc(OC)c(OC)c(OC)c2)cc1`: the TGI is above 100 µM in the experiment with SF-295 CNS; above 100 µM in the experiment on SW-620 colon; above 100 µM in the experiment with CCRF-CEM leukemia; above 100 µM with SK-MEL-28 melanoma; 12 µM with K-562 leukemia.
In the case of `CC1=C(C(=O)Nc2ccc([N+](=O)[O-])cc2)C(c2ccccc2O)C(C(=O)Nc2ccc([N+](=O)[O-])cc2)=C(C)N1`, the TGI in the experiment with SF-295 CNS worked out at 72.2 µM; in the experiment with SW-620 colon it was 94.1 µM; in the experiment with CCRF-CEM leukemia, 61.7 µM; with SK-MEL-28 melanoma, 61.5 µM; in the experiment with COLO 205 colon it was 40.8 µM; in the experiment on K-562 leukemia it was 74.2 µM.
On to `CN(C)C(=S)/N=c1\ss/c(=N\C(=S)N(C)C)n1-c1ccc(Cl)cc1`, for which the TGI in the experiment with SF-295 CNS, with SW-620 colon, in the experiment with CCRF-CEM leukemia, in the experiment on SK-MEL-28 melanoma, in the experiment on COLO 205 colon and in the experiment on K-562 leukemia was above 100 µM throughout.
`CCOc1ccccc1N1C(=O)C(=O)C(c2nc3ccccc3o2)/C(=N\N)C1=O` (configuration not stated): the TGI in the experiment with SF-295 CNS, in the experiment with SW-620 colon, with CCRF-CEM leukemia, in the experiment with SK-MEL-28 melanoma, in the experiment with COLO 205 colon and in the experiment on K-562 leukemia was above 100 µM each time.
